According to patent US10072304B2, “Nuclear localization of Src-family tyrosine kinases is required for growth factor-induced euchromatinization” (National University Corporation Chiba University, priority 2009, dated 2018):

System: COS-1 cells
Assay: Quantitation of chromatin condensation levels (S.D. value of PI intensity per pixel) in COS-1 cells
Type: cell-based, monkey
Procedure: COS-1, HeLa cells (Japanese Collection of Research Bioresources, Osaka), MCF-7 (provided by H. Saya), A431 (provided by M. N. Fukuda), HEK293 (provided by […]), HCT116 (provided by T. Tomonaga), and SYF ([37]; provided by M. Okada and S. Nada) cells were cultured in Iscove's modified DME containing 5% fetal bovine serum (FBS). Cells were transiently transfected with 0.5 μg of plasmid vector using Trans IT Transfection reagent (Mirus) or with 1 μg of plasmid vector using linear polyethylenimine (25 kDa) (Polyscience, Inc.). For growth factor stimulation, COS-1 cells were starved under low serum conditions (0.05% FBS) for 24 h and restimulated with serum (5% FBS). For stimulation of endogenous SFKs, cells were treated with 3 mM Na3VO4 for 3 h, and SFK-mediated tyrosine phosphorylation was verified by treatment with 10 μM PP2 (SFK inhibitor; Calbiochem) or 100 nM wortmannin (PI3K inhibitor; Alomone Labs) for 21 h before Na3VO4 treatment. Na3VO4 was dissolved at 500 mM in 500 mM unbuffered HEPES before use. For preparation of stable transfectant clones, SYF cells transfected with c-Src-wt or Lyn-wt were selected in 333 μg/mL Zeocin (Invitrogen), and COS-1 cells were transfected with the BOSH2BGFP-N1 vector, which encodes GFP-tagged histone H2B ([39,40]; provided by H. Saya), were selected in 3 μg/mL blasticidin. Confocal and Nomarski differential-interference-contrast images were obtained using a Fluoview FV500 confocal laser scanning microscope with a 40×1.00 NA oil and a 100×1.35 NA oil immersion objective (Olympus, Tokyo) and an LSM 510 confocal laser scanning microscope with a 63×1.40 NA oil immersion objective (Zeiss), as described. One planar (xy) section slice (0.6-μm thickness) is shown in all experiments. In brief, cells were fixed with 4% paraformaldehyde for 20 min, and permeabilized in phosphate-buffered saline (PBS) containing 0.1% saponin and 3% bovine serum albumin at room temperature. Cells were subsequently reacted with an appropriate primary antibody for 1 h, washed with PBS containing 0.1% saponin, stained with FITC- or TRITC-conjugated secondary antibody for 1 h. […] To ensure no bleed-through from the fluorescein signal into the red channel, fluorescein and rhodamine were independently excited at 488 nm and 543 nm, respectively. PI was excited at 488 or 543 nm. Emission signals were detected between 505 and 525 nm for fluorescein, at more than 560 nm for rhodamine and more than 610 nm for PI [44]. Composite figures were prepared using Photoshop 5.0 and Illustrator 9.0 software (Adobe). For nuclear staining with anti-pTyr, anti-ATF-2 […]/71, and anti-histone H3K4me3 antibodies, cells were in situ extracted with 0.5% Triton X-100 at 4° C. for 3 min before fixation with 4% paraformaldehyde. For HP1α staining, cells were fixed in 100% methanol at -20° C. for 10 min followed by permeabilization for 30 min in PBS containing 0.1% Triton X-100 at room temperature. Cells were reacted with anti-HP1α antibody for 1 h at room temperature, washed with PBS four times, and stained with secondary antibody for 1 h. Fluorescence intensity plots of anti-histone H3K4me3, anti-ATF-2 […]/71 and anti-HP1α antibody and PI staining (see FIGS. 18B, 19B, and 20B, respectively) were generated using Fluoview version 4.3 software (Olympus, Tokyo). For detection of the kinase activity of nuclear SFKs, purified nuclei suspended in kinase buffer (50 mM HEPES-NaOH, pH7.4, 5 mM MgCl2, 5 mM MnCl2 and 0.1 mM Na3VO4) were preincubated with or without 10 μM PP2 at 30° C. for 30 min, and subsequently incubated with 5 or 10 μM ATP at 30° C. for 30 min, followed by cytocentrifugation at 200×g for 5 min and fixation with 4% paraformaldehyde. DNA was stained with 20 μg/mL PI and 200 μg/mL RNase A for 30 min. Mean fluorescence intensity of tyrosine-phosphorylated proteins in the nucleus was measured using the ImageJ software (National Institutes of Health). Confocal images of PI-stained nuclei were obtained as described above. […]

[Na+].[Na+].[Na+].[O]=[V]([O-])([O-])[O-] [Na3VO4, sodium orthovanadate]
hypo- and hypercondensed chromatin states (COS-1, 3 mM Na3VO4 for 3 h, FIGS. 23 and 26): induced drastic changes

CC(C)(C)n1nc(-c2ccc(Cl)cc2)c2c(N)ncnc21 [PP2]
basal levels of chromatin condensation (COS-1, 10 μM PP2 or 100 nM wortmannin for 24 h, FIGS. 22 and 26): significantly reduce
chromatin hypo- and hypercondensation in Na3VO4-treated cells (COS-1, 10 μM PP2 pretreatment 21 h, then 3 mM Na3VO4 3 h, FIGS. 23 and 26): decrease
serum-stimulated chromatin hypo- and hypercondensation (COS-1 starved 24 h (0.05% FBS), stimulated with 5% FBS in presence of 10 μM PP2, FIG. 16): significantly inhibited
hyperosmotic stress-induced chromatin structural changes (cells not specified, hyperosmolar conditions, data not shown): did not inhibit
